Assay results as given in patent US5185352A, “Alkoxy-4(1H)-pyridone derivatives, processes for the preparation thereof and pharmaceutical compositions containing them” (Goedecke Aktiengesellschaft, priority 1988, dated 1993).
Where a name gives a salt, the structure may show the parent alone. Read-outs that look alike come from different tables or passages of the source.

Assays:
[1] = system: Noradrenaline-Precontracted Aorta; assay: Endothelium-dependent smooth muscle relaxation of noradrenaline-precontracted rabbit aorta rings in an organ bath; conditions: Oryctolagus cuniculus, noradrenaline 3 × 10^-7 mol/L
Protocol: Rabbit aorta rings are fixed in an organ bath filled with physiological salt solution (Krebs-Henseleit) between L-shaped wires. The solution is gassed with carbogen. Contractions are initiated by 3×10^-7 noradrenaline. When the tension has reached a stable plateau, compounds of the instant invention are added. The effect of the compounds first is tested on organ preparation with functioning endothelium. In an additional experiment in order to test whether the relaxation is endothelium-dependent the compounds are tested with aorta rings with damaged endothelium. For an endothelium-dependent relaxation, effected by the endothelium-derived relaxating factor (EDRF), the following characteristics are required: absence of the effect in preparations with damaged endothelium, no inhibition of the relaxation by indomethazine and inhibition of the relaxation by NDGA (nordihydro-guaiaretic acid), methylene blue and gossypol. These criteria are completely met by the compounds listed in Table II, and one can conclude, that the compounds of the instant invention act in an unexpected manner by the release of EDRF, and thereby relax vascular smooth muscle.

[2] = target: calcium- and phospholipid-dependent protein kinase (PKC); assay: Inhibition of the activity of protein kinase C (incorporation of P^32-labelled phosphate into histone H-1); type: biochemical; conditions: PKC enriched from rat brain; histone H-1 substrate; 5 min, 30° C.; pH 7.5
Excerpt: For the clarification of the inhibiting influence of compounds of formula I according to the present invention on the calcium- and phospholipid-dependent protein kinase (PKC), this enzyme activity was enriched from rat brain. Using the purification steps described in the literature (J. Biol. Chem., 260, 15718-15722/1985), in the case of a purification consisting of two steps, there was utilized the property of the enzyme to bind to cell membranes in the presence of calcium and to be dissolved off again by calcium chelators (EGTA). In the first enrichment step, there took place the binding of the PKC to membranes of the rat brain and in the second step on so-called inside-out vesicles or erythrocytes. After dissolving off from the erythrocyte membranes and rebuffering, the PKC preparation was present in 10 mM HEPES, 1 mM DTT, 0.1% PEG 20000, pH 7.5. Under these conditions, it could be stored at -70° C. for several months without loss of activity.
The activity of the enzyme was determined via the incorporation of P^32 -labelled phosphate into the protein histone H-1 (Sigma Type III) which can be phosphorylated by PKC.
The test thereby contains the following components: 50 mM HEPES-NaOH (pH 7.5), 5 mM magnesium chloride, 1 mM DTT, 4 μm. free calcium ions, 10 μMaTP, 1 μg phosphatidylserine, 0.2 μg 1,2-diolein, as well as 40 μg histone H-1 and optionally the test substance.
The batch is preincubated for 4 minutes at 30° C. and the reaction then started by the addition of 5 nM PKC. After incubating for 5 minutes at 30° C., the reaction is stopped with 10% TCA and the samples then filtered off. The phosphate incorporation is determined by Cerenkov counting in a scintillation counter. The kinase activity measured in the absence of the test substance was, in each case, taken as being 100% and the inhibiting action of the compounds of formula I referred thereto as percentages.

[3] = damaged endothelium, read-out: Relaxation of Noradrenaline-Precontracted Aorta, EC50, Damaged Endothelium
[4] = functioning endothelium, read-out: Relaxation of Noradrenaline-Precontracted Aorta, EC50, Functioning Endothelium

`CC(=O)OCC[N+](C)(C)C` [Acetylcholine, reference compound] was tested, and the EC50 [1, 3] was greater than 100000 nM and the EC50 [1, 4] was 30 nM.
With `CCCCCCCCCCCCCCCCCCOc1cn(Cc2ccccc2)c(CNCCCN(C)C)cc1=O` [Example 54, 1-Benzyl-2-[N-(3-dimethylaminopropyl)-aminomethyl]-5-octadecyloxy-4(1H)-pyridone dioxalate] the EC50 [1, 3] was greater than 100000 nM, the EC50 [1, 4] was 15000 nM and the IC50 [2] was 1400 nM.
`CCCCCCCCCCCCCCCCCCOc1cn(Cc2ccc(Cl)cc2)c(CNCCCN(C)C)cc1=O` [Example 69, 1-(4-Chlorobenzyl)-2-[N-(3-dimethylamino-propyl)aminomethyl]-5-octadecyloxy-4(1H)-pyridone difumarate 1.25 hydrate] showed an EC50 [1, 3] greater than 100000 nM, an EC50 [1, 4] of 30000 nM and an IC50 [2] of 1500 nM.
`CCCCCCCCCCCCCCCCCCOc1cn(Cc2ccccc2)c(CNCCCN(C)Cc2ccccc2)cc1=O` [Example 71, 1-Benzyl-2-[N-(3-N-benzyl-N-methylaminopropyl)aminomethyl]-5-octadecyloxy-4(1H)-pyridone difumarate] gave an EC50 [1, 3] greater than 100000 nM, an EC50 [1, 4] of 3000 nM and an IC50 [2] of 1800 nM.
With `CCCCCCCCCCCCCCCCCCOc1cn(Cc2ccccc2)c(CN2CCN(Cc3ccccc3)CC2)cc1=O` [Example 88, 1-[(1-Benzyl-5-octadecyloxy-4(1H)-pyridon-2-yl)methyl]-4-benzylpiperazine] the EC50 [1, 3] was greater than 100000 nM, the EC50 [1, 4] was 3400 nM and the IC50 [2] was 3000 nM.
`CCCCCCCCCCCCCCCCCCOc1cn(Cc2ccccc2)c(CN(C)CCCN(C)C)cc1=O` [Example 89, 1-Benzyl-2-[N-(3-dimethylaminopropyl)-N-methylaminomethyl]-5-octadecyloxy-4(1H)-pyridone trihydrochloride] gave an IC50 [2] of 1800 nM.
`CCCCCCCCCCCCCCCCCCOc1cn(Cc2ccccc2)c(CN2CCN(Cc3ccccc3)CC2)cc1=O` [Example 93, 1-[(1-Benzyl-5-octadecyloxy-4(1H)-pyridone-2-yl)methyl]-4-benzylpiperazine·dioxlate·1/2 H2 O] gave an IC50 [2] of 5500 nM.
`CCCCCCCCCCCCCCCCCCOc1cn(Cc2ccccc2)c(CN2CCN(CCc3ccccc3)CC2)cc1=O` [Example 94, 1-[(1-Benzyl-5-octadecyloxy-4(1H)-pyridone-2-yl)methyl]-4-(2-phenylethyl)piperazine·trihydrochloride·1/2 H2 O] was tested, and the IC50 [2] was 2400 nM.
`CCCCCCCCCCOc1cn(Cc2ccccc2)c(CN2CCN(CCc3ccccc3)CC2)cc1=O` [Example 95, 1-[(1-Benzyl-5-decyloxy-4(1H)-pyridone-2-yl)-methyl]4-(2-phenylethyl)piperazine·dihydrochloride] was tested, and the IC50 [2] was 4300 nM.
For `CCCCCCCCCCCCCCCCCCOc1cn(Cc2ccccc2)c(CN2CCC(CN)(c3ccccc3)CC2)cc1=O` [Example 101, 1-[(1-Benzyl-5-octadecyloxy-4(1H)-pyridon-2-yl)methyl]-4-aminomethyl-4-phenylpiperidine trihydrochloride], the EC50 [1, 3] was greater than 100000 nM, the EC50 [1, 4] was 20000 nM and the IC50 [2] was 1500 nM.
With `CCCCCCCCCCCCCCCCCCOc1cn(Cc2ccccc2)c(COCCCN(C)C)cc1=O` [Example 103, 1-Benzyl-2-(3-dimethylaminopropoxymethyl)-5-octadecyloxy-4(1H)-pyridone dihydrochloride] the IC50 [2] was 4000 nM.
For `CCCCCCCCCCCCCCCCCCOc1cn(CCC)c(COCCCN(C)C)cc1=O` [Example 105, 2-(3-Dimethylaminopropoxymethyl)-5-octadecyloxy-1-propyl-4(1H)-pyridone dihydrochloride 3/4 hydrate], the IC50 [2] was 2000 nM.
Compound `CCCCCCCCCCCCCCCCCCOc1cn(Cc2ccc(C)cc2)c(COCCCN(C)C)cc1=O` [Example 106, 2-(3-Dimethylaminopropoxymethyl)-1-(4-methylbenzyl)-5-octadecyloxy-4(1H)-pyridone dihydrochloride sesquihydrate] has an IC50 [2] of 2400 nM.
Work on `CCCCCCCCCCCCCCCCCCOc1cn(Cc2ccc(OC)cc2)c(COCCCN(C)C)cc1=O` [Example 107, 2-(3-Dimethylaminopropoxymethyl)-1-(4-methoxybenzyl)-5-octadecyloxy-4(1H)-pyridone dihydrochloride 1/4 hydrate] yielded an IC50 [2] of 2900 nM.
With `CCCCCCCCCCCCCCCCCCOc1cn(CC2CCCCC2)c(COCCCN(C)C)cc1=O` [Example 108, 1-Cyclohexylmethyl-2-(3-dimethylaminopropoxymethyl)-5-octadecyloxy-4(1H)-pyridone oxalate] the IC50 [2] was 2900 nM.
For `CCCCCCCCCCCCCCCCCCOc1cn(Cc2ccc(Cl)cc2)c(COCCCN(C)C)cc1=O` [Example 109, 1-(4-Chlorobenzyl)-2-(3-dimethylaminopropoxymethyl)-5-octadecyloxy-4(1H)-pyridone dihydrochloride 2.5 hydrate], the IC50 [2] was 2600 nM.
`CCCCCCCCCCCCCCCCCCOc1cn(Cc2ccccc2)c(CCC(=O)OC)cc1=O` [Example 114, Methyl 3-[1-benzyl-5-octadecyloxy-4(1H)-pyridon-2-yl]-propionate] was tested, and the IC50 [2] was 9000 nM.
Compound `CCCCCCCCCCCCCCCCCCOc1cn(Cc2ccccc2)c(CCC(N)=O)cc1=O` [Example 116, 3-[1-benzyl-5-octadecyloxy-4(1H)-pyridon-2-yl]-propionic acid amide] has an IC50 [2] of 9000 nM.
